Experimental data: ChEMBL document CHEMBL1126045, “Alanine series of ovine corticotropin releasing factor (oCRF): a structure-activity relationship study” (J Med Chem, 1992)

Tests used:
Pituitary gland cell [1] = assay: In vitro ability of the compound (peptide) to stimulate ACTH release by rat anterior pituitary cells in relative to Ovine corticotropin releasing factor (oCRF) in experiment 1; type: cell-based; parameters: unit not given here
Pituitary gland cell [2] = assay: In vitro ability of the compound (peptide) to stimulate ACTH release by rat anterior pituitary cells in relative to Ovine corticotropin releasing factor (oCRF) in experiment 2; type: cell-based; parameters: unit not given here

| Compound | Relative potency (Pituitary gland cell [1]) | Relative potency (Pituitary gland cell [2]) |
| --- | --- | --- |
| CC[C@H](C)[C@H](NC(=O)[C@H](CC(=O)O)NC(=O)[C@H](CC(C)C)NC(=O)[C@H](CC(C)C)NC(=O)[C@H](CCCCN)NC(=O)[C@H](CCCN=C(N)N)NC(=O)[C@H](CC(N)=O)NC(=O)[C@H](CO)NC(=O)[C@H](Cc1c[nH]cn1)NC(=O)[C@H](C)NC(=O)[C@H](CCC(N)=O)NC(=O)[C@H](CCC(N)=O)NC(=O)[C@H](C)NC(=O)[C@H](CC(C)C)NC(=O)[C@H](CCC(N)=O)NC(=O)[C@H](CC(=O)O)NC(=O)[C@H](C)NC(=O)[C@H](CCCCN)NC(=O)[C@@H](NC(=O)[C@H](CCSC)NC(=O)[C@H](CCC(=O)O)NC(=O)[C@H](CC(C)C)NC(=O)[C@@H](NC(=O)[C@H](CCC(=O)O)NC(=O)[C@H](CCCN=C(N)N)NC(=O)[C@H](CC(C)C)NC(=O)[C@H](CC(C)C)NC(=O)[C@H](Cc1c[nH]cn1)NC(=O)[C@H](Cc1ccccc1)NC(=O)[C@@H](NC(=O)[C@H](CC(C)C)NC(=O)[C@H](CC(=O)O)NC(=O)[C@H](C)NC(=O)[C@H](CO)NC(=O)[C@@H](NC(=O)[C@@H]1CCCN1C(=O)[C@@H]1CCCN1C(=O)[C@H](CCC(=O)O)NC(=O)[C@H](CCC(N)=O)NC(=O)[C@@H](N)CO)[C@@H](C)CC)[C@@H](C)O)C(C)C)[C@@H](C)O)C(=O)N[C@@H](C)C(N)=O | 0.03 | 0.005 |
| CC[C@H](C)[C@H](NC(=O)[C@H](CC(=O)O)NC(=O)[C@H](CC(C)C)NC(=O)[C@H](CC(C)C)NC(=O)[C@H](CCCCN)NC(=O)[C@H](CCCN=C(N)N)NC(=O)[C@H](CC(N)=O)NC(=O)[C@H](CO)NC(=O)[C@H](Cc1c[nH]cn1)NC(=O)[C@H](C)NC(=O)[C@H](CCC(N)=O)NC(=O)[C@H](CCC(N)=O)NC(=O)[C@H](C)NC(=O)[C@H](CC(C)C)NC(=O)[C@H](CCC(N)=O)NC(=O)[C@H](CC(=O)O)NC(=O)[C@H](C)NC(=O)[C@H](CCCCN)NC(=O)[C@@H](NC(=O)[C@H](CCSC)NC(=O)[C@H](CCC(=O)O)NC(=O)[C@H](CC(C)C)NC(=O)[C@@H](NC(=O)[C@H](CCC(=O)O)NC(=O)[C@H](CCCN=C(N)N)NC(=O)[C@H](CC(C)C)NC(=O)[C@H](CC(C)C)NC(=O)[C@H](Cc1c[nH]cn1)NC(=O)[C@H](Cc1ccccc1)NC(=O)[C@@H](NC(=O)[C@H](CC(C)C)NC(=O)[C@H](CC(=O)O)NC(=O)[C@H](CC(C)C)NC(=O)[C@H](C)NC(=O)[C@@H](NC(=O)[C@@H]1CCCN1C(=O)[C@@H]1CCCN1C(=O)[C@H](CCC(=O)O)NC(=O)[C@H](CCC(N)=O)NC(=O)[C@@H](N)CO)[C@@H](C)CC)[C@@H](C)O)C(C)C)[C@@H](C)O)C(=O)N[C@@H](C)C(N)=O | 0.16 | 0.21 |
| H-SQEPPISLDLTFHALREVLEMTKADQLAQQAHSNRKLLDIA-NH2 | 0.001 | 0.001 |
| H-SQEPPISLDLTFHLLREVLAMTKADQLAQQAHSNRKLLDIA-NH2 | 2.8 | 1.6 |
| H-SQEPPISLDLTFHLLREVLEMTKADQAAQQAHSNRKLLDIA-NH2 | 0.6 | 0.38 |
| H-SQEPPISLDLTFHLLREVLEMTKADQLAAQAHSNRKLLDIA-NH2 | 1 | 1.4 |
| H-SQEPPISLDLTFHLLREVLEMTKADQLAQQAHSNRKLADIA-NH2 | 0.004 | 0.0002 |
